Results: patent US11213055B2, “Fermentate compositions and methods of making and using the same” (Third Wave Bioactives, LLC, priority 2017, dated 2022)
Values joined by “and” are separate entries in the source; they are usually repeats but may differ in a detail not shown here. Equal values may be shown once.

What was measured:
[1] = system: total aerobic plate count (APC); experiment: total aerobic plate count (APC) in dark chocolate sauce; type: cell-based
Description: (§1) The treatments were prepared by dissolving the spray dried fermentate in 15 ml sterile water and then mixed into the sauce using sterile hand whisks. One of the L. reuteri fermentate treatments was incubated for 30 minutes in a water bath set at 60° C. prior to addition to the chocolate sauce to determine how heat would affect the treatment since traditional manufacturing of the chocolate sauce includes a heating step.
(§2) All jars were then inoculated with a dual yeast challenge of Zygosaccharomyces rouxii strain, Y-229, and Torulaspora delbruckii strain, Y-866, which were both obtained from the ARS NRRL Culture Collection. The yeast strains were grown in Potato Dextrose broth at 32° C. overnight, then diluted in sterile water to approximately 2.0×10^5 CFU/ml. The two strains were then combined and 5 ml of the combination culture was added to each jar to provide a challenge dose of approximately 1.0×10^3 CFU/ml.
(§3) A 10-gram sample was removed from each jar immediately after challenge inoculation to analyze the pH and the initial yeast count in duplicate on Potato Dextrose Agar acidified with 10% Tartaric Acid (PDA4-TA) as well as the total aerobic plate count (APC) in duplicate on Tryptic Soy Agar (TSA). Once solidified, the PDA+TA plates were incubated at 28° C. for 72 hours and the TSA plates were incubated at 32° C. for 48 hours, then counted to determine CFU/g. The jars were kept at room temperature (˜20-22° C.) in a dark cabinet for the first 21 days, then moved to an incubator set at 28° C. for the duration of the study. On days 4, 7, 11, 14, 18, 21, 28, 35, 49, 56, 63, 94, 109, and 124, a 10-gram sample was removed from each jar to analyze the change in pH, as well as the yeast and APC levels in duplicate as described above.

[2] = system: Zygosaccharomyces rouxii strain, Y-229, and Torulaspora delbruckii strain, Y-866; experiment: yeast challenge in dark chocolate sauce, yeast enumeration; type: cell-based
Description: as §1, §2, §3

Structure (SMILES): C/C=C/C=C/C(=O)[O-].[K+] [Potassium sorbate]
- APC, CFU/g (duplicate counts) ([1]; day 0): 2.83E+03 CFU/g and 2.94E+03 CFU/g
- APC, AVG ([1]; day 0, average of duplicate counts): 2.89E+03 CFU/g
- APC, CFU/g (duplicate counts) ([1]; day 4): 2.57E+03 CFU/g and 2.96E+03 CFU/g
- APC, AVG ([1]; day 4, average of duplicate counts): 2.77E+03 CFU/g
- APC, CFU/g (duplicate counts) ([1]; day 7): 2.47E+03 CFU/g and 3.12E+03 CFU/g
- APC, AVG ([1]; day 7, average of duplicate counts): 2.79E+03 CFU/g
- APC, CFU/g (duplicate counts) ([1]; day 11): 2.24E+03 CFU/g and 2.49E+03 CFU/g
- APC, AVG ([1]; day 11, average of duplicate counts): 2.36E+03 CFU/g
- APC, CFU/g (duplicate counts) ([1]; day 14): 1.59E+03 CFU/g and 2.13E+03 CFU/g
- APC, AVG ([1]; day 14, average of duplicate counts): 1.86E+03 CFU/g
- APC, CFU/g (duplicate counts) ([1]; day 18): 1.44E+03 CFU/g and 1.56E+03 CFU/g
- APC, AVG ([1]; day 18, average of duplicate counts): 1.50E+03 CFU/g
- APC, CFU/g (duplicate counts) ([1]; day 21): 1.13E+03 CFU/g and 1.31E+03 CFU/g
- APC, AVG ([1]; day 21, average of duplicate counts): 1.22E+03 CFU/g
- APC, CFU/g (duplicate counts) ([1]; day 28): 8.53E+02 CFU/g and 9.84E+02 CFU/g
- APC, AVG ([1]; day 28, average of duplicate counts): 9.19E+02 CFU/g
- APC, CFU/g (duplicate counts) ([1]; day 35): 7.22E+02 CFU/g and 6.82E+02 CFU/g
- APC, AVG ([1]; day 35, average of duplicate counts): 7.02E+02 CFU/g
- APC, CFU/g (duplicate counts) ([1]; day 49): 6.85E+02 CFU/g and 6.14E+02 CFU/g
- APC, AVG ([1]; day 49, average of duplicate counts): 6.50E+02 CFU/g
- APC, CFU/g (duplicate counts) ([1]; day 56): 5.72E+02 CFU/g and 3.71E+02 CFU/g
- APC, AVG ([1]; day 56, average of duplicate counts): 4.71E+02 CFU/g
- APC, CFU/g (duplicate counts) ([1]; day 63): 5.89E+02 CFU/g and 6.79E+02 CFU/g
- APC, AVG ([1]; day 63, average of duplicate counts): 6.34E+02 CFU/g
- APC, CFU/g (duplicate counts) ([1]; day 94): 5.54E+02 CFU/g and 7.62E+02 CFU/g
- APC, AVG ([1]; day 94, average of duplicate counts): 6.58E+02 CFU/g
- APC, CFU/g (duplicate counts) ([1]; day 109): 6.36E+02 CFU/g and 5.52E+02 CFU/g
- APC, AVG ([1]; day 109, average of duplicate counts): 5.94E+02 CFU/g
- APC, CFU/g (duplicate counts) ([1]; day 124): 2.52E+02 CFU/g and 3.78E+02 CFU/g
- APC, AVG ([1]; day 124, average of duplicate counts): 3.15E+02 CFU/g
- day at which resurgence of yeast started ([2]; dark chocolate sauce): 49 days
- day at which yeast levels were no longer detectable (<10 CFU/g) ([2]; dark chocolate sauce): 35 days
- Enumeration of yeast in dark chocolate sauce, AVG ([2]; day 0): 2.00E+03 CFU/g
- Enumeration of yeast in dark chocolate sauce, duplicate counts ([2]; day 0): 1.73E+03 CFU/g and 2.27E+03 CFU/g
- Enumeration of yeast in dark chocolate sauce, AVG ([2]; day 4): 1.23E+03 CFU/g
- Enumeration of yeast in dark chocolate sauce, duplicate counts ([2]; day 4): 9.49E+02 CFU/g and 1.51E+03 CFU/g
- Enumeration of yeast in dark chocolate sauce, AVG ([2]; day 7): 9.08E+02 CFU/g
- Enumeration of yeast in dark chocolate sauce, duplicate counts ([2]; day 7): 6.43E+02 CFU/g and 1.17E+03 CFU/g
- Enumeration of yeast in dark chocolate sauce, AVG ([2]; day 11): 1.02E+03 CFU/g
- Enumeration of yeast in dark chocolate sauce, duplicate counts ([2]; day 11): 1.10E+03 CFU/g and 9.43E+02 CFU/g
- Enumeration of yeast in dark chocolate sauce, AVG ([2]; day 14): 5.48E-02 CFU/g
- Enumeration of yeast in dark chocolate sauce, duplicate counts ([2]; day 14): 4.99E+02 CFU/g and 5.98E+02 CFU/g
- Enumeration of yeast in dark chocolate sauce, AVG ([2]; day 18): 3.30E+02 CFU/g
- Enumeration of yeast in dark chocolate sauce, AVG ([2]; day 21): 2.06E+02 CFU/g
- Enumeration of yeast in dark chocolate sauce, AVG ([2]; day 28): 1.26E+02 CFU/g
- Enumeration of yeast in dark chocolate sauce, duplicate counts ([2]; day 28): 1.51E+02 CFU/g and 1.00E+02 CFU/g
- Enumeration of yeast in dark chocolate sauce, AVG ([2]; day 35): <10 CFU/g
- Enumeration of yeast in dark chocolate sauce, duplicate counts ([2]; day 35): <10 CFU/g
- Enumeration of yeast in dark chocolate sauce, AVG ([2]; day 49): 1.53E+01 CFU/g
- Enumeration of yeast in dark chocolate sauce, AVG ([2]; day 56): <10 CFU/g
- Enumeration of yeast in dark chocolate sauce, duplicate counts ([2]; day 56): <10 CFU/g
- Enumeration of yeast in dark chocolate sauce, AVG ([2]; day 63): <10 CFU/g
- Enumeration of yeast in dark chocolate sauce, duplicate counts ([2]; day 63): <10 CFU/g
- Enumeration of yeast in dark chocolate sauce, AVG ([2]; day 94): 3.71E+02 CFU/g
- Enumeration of yeast in dark chocolate sauce, duplicate counts ([2]; day 94): 3.07E+02 CFU/g and 4.35E+02 CFU/g
- Enumeration of yeast in dark chocolate sauce, AVG ([2]; day 109): 1.50E+02 CFU/g
- Enumeration of yeast in dark chocolate sauce, AVG ([2]; day 124): 1.21E+04 CFU/g
- Enumeration of yeast in dark chocolate sauce, duplicate counts ([2]; day 124): 1.25E+04 CFU/g and 1.17E+04 CFU/g
